Earlier results as cited in patent US6409990B1, “Macromolecular carrier for drug and diagnostic agent delivery” (The Regents of the University of California, priority 1999, dated 2002).

Conditions: similar time postinjection; Grist TM et al.

Compound: O=C([O-])CN(CCN(CC(=O)[O-])C[C@H](COP(=O)([O-])OC1CCC(c2ccccc2)(c2ccccc2)CC1)N(CC(=O)[O-])CC(=O)[O-])CC(=O)[O-].[Gd+3].[H+].[H+].[H+] [MS-325]
- typical CNR in the human aorta: 42
